Experimental data taken from patent US6914045B2, “Glycopeptide antibiotics” (Wyeth Holdings Corporation, priority 2001, dated 2005).
In brackets after ≈: the same amount, converted by molar mass.

Tests used:
Experiment in all cases: in vitro antibacterial evaluation, MIC by broth dilution
Type in all cases: cell-based
[1] = tested on: Escherichia coli
How it was run: (§1)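 Broth dilution per NCCLS M7-A2 in Mueller-Hinton II medium, inoculum 5×10^5 CFU/mL, antibiotic range 64-0.06 μg/mL. MIC taken as lowest concentration inhibiting growth; Gram-positive panel includes recent clinical isolates resistant to methicillin, penicillin and/or vancomycin.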

[2] = tested on: Staphylococcus sp.; conditions: broth dilution, 18 hours at 35° C.; for MIC Staphylococcus aureus (GC 1131): strain GC 1131
How it was run: as §1

[3] = tested on: Enterococcus sp.; conditions: broth dilution, 18 hours at 35° C.; for MIC Enterococcus faecalis (ATCC 29212): strain ATCC 29212; for MIC Enterococcus faecium (GC 2243): strain GC 2243; for MIC Enterococcus faecalis (GC 4552): strain GC 4552; for MIC Enterococcus faecalis (GC 4553): strain GC 4553; for MIC Enterococcus faecalis (GC 4554): strain GC 4554; for MIC Enterococcus faecium (GC 4556): strain GC 4556; for MIC Enterococcus faecium (GC 4557): strain GC 4557; for MIC Enterococcus avium (GC 4558): strain GC 4558; for MIC Enterococcus faecalis (GC 6189): strain GC 6189
How it was run: as §1

[4] = tested on: Streptococcus sp.; conditions: broth dilution, 18 hours at 35° C.
How it was run: as §1

MIC Escherichia coli (ATCC 25922) ([1]; strain ATCC 25922, 18 hours at 35° C.): >64 µg/mL
MIC Escherichia coli (GC 4559) ([1]; strain GC 4559, 18 hours at 35° C.): >64 µg/mL
MIC Staphylococcus aureus (GC 1131) ([2]; inoculum 5×10^5 CFU/mL): 32 µg/mL (≈ 21.9 µM)
MIC Staphylococcus aureus (ATCC 29213) ([2]; strain ATCC 29213): 32 µg/mL (≈ 21.9 µM)
MIC Staphylococcus aureus (GC 1131) [2]: 32 µg/mL (≈ 21.9 µM)
MIC Staphylococcus aureus (GC 3051) ([2]; strain GC 3051): 16 µg/mL (≈ 10.9 µM)
MIC Staphylococcus aureus (GC 3053) ([2]; strain GC 3053): 32 µg/mL (≈ 21.9 µM)
MIC Staphylococcus aureus (GC 4541) ([2]; strain GC 4541): 16 µg/mL (≈ 10.9 µM)
MIC Staphylococcus aureus (GC 4542) ([2]; strain GC 4542): 32 µg/mL (≈ 21.9 µM)
MIC Staphylococcus aureus-SMITH (GC 4543) ([2]; strain GC 4543): 16 µg/mL (≈ 10.9 µM)
MIC Staphylococcus aureus (GC 4544) ([2]; strain GC 4544): 32 µg/mL (≈ 21.9 µM)
MIC Staphylococcus aureus (GC 4545) ([2]; strain GC 4545): 16 µg/mL (≈ 10.9 µM)
MIC Coagulase Negative Staphylococcus (GC 4547) ([2]; strain GC 4547): 16 µg/mL (≈ 10.9 µM)
MIC Coagulase Negative Staphylococcus (GC 4548) ([2]; strain GC 4548): 8 µg/mL (≈ 5.47 µM)
MIC Coagulase Negative Staphylococcus (GC 4549) ([2]; strain GC 4549): 8 µg/mL (≈ 5.47 µM)
MIC Coagulase Negative Staphylococcus (GC 4551) ([2]; strain GC 4551): 32 µg/mL (≈ 21.9 µM)
MIC Coagulase Negative Staphylococcus (GC 6257) ([2]; strain GC 6257): 4 µg/mL (≈ 2.74 µM)
MIC Staphylococcus aureus-SMITH (GC 4543) ([2]; strain SMITH GC 4543): 16 µg/mL (≈ 10.9 µM)
MIC Enterococcus faecalis (GC 2242) ([3]; Enterococcus faecalis (GC 2242)): 64 µg/mL (≈ 43.8 µM)
MIC Enterococcus faecalis (GC 2691) ([3]; Enterococcus faecalis (GC 2691)): >64 µg/mL
MIC Enterococcus faecalis (GC 3059) ([3]; Enterococcus faecalis (GC 3059)): >64 µg/mL
MIC Enterococcus faecalis (ATCC 29212) ([3]; inoculum 5×10^5 CFU/mL): >64 µg/mL
MIC Enterococcus faecium (GC 2243) ([3]; inoculum 5×10^5 CFU/mL): 64 µg/mL (≈ 43.8 µM)
MIC Enterococcus faecalis (GC 4552) ([3]; inoculum 5×10^5 CFU/mL): >64 µg/mL
MIC Enterococcus faecalis (GC 4553) ([3]; inoculum 5×10^5 CFU/mL): >64 µg/mL
MIC Enterococcus faecalis (GC 4554) ([3]; inoculum 5×10^5 CFU/mL): >64 µg/mL
MIC Enterococcus faecium (GC 4556) ([3]; inoculum 5×10^5 CFU/mL): >64 µg/mL
MIC Enterococcus faecium (GC 4557) ([3]; inoculum 5×10^5 CFU/mL): 8 µg/mL (≈ 5.47 µM)
MIC Enterococcus avium (GC 4558) ([3]; inoculum 5×10^5 CFU/mL): 64 µg/mL (≈ 43.8 µM)
MIC Enterococcus faecalis (GC 6189) ([3]; inoculum 5×10^5 CFU/mL): >64 µg/mL
MIC Enterococcus faecalis (ATCC 29212) [3]: >64 µg/mL
MIC Enterococcus faecalis (GC 2242) ([3]; strain GC 2242): 64 µg/mL (≈ 43.8 µM)
MIC Enterococcus faecium (GC 2243) [3]: 64 µg/mL (≈ 43.8 µM)
MIC Enterococcus faecalis (GC 2691) ([3]; strain GC 2691): >64 µg/mL
MIC Enterococcus faecalis (GC 3059) ([3]; strain GC 3059): >64 µg/mL
MIC Enterococcus faecalis (GC 4552) [3]: >64 µg/mL
MIC Enterococcus faecalis (GC 4553) [3]: >64 µg/mL
MIC Enterococcus faecalis (GC 4554) [3]: >64 µg/mL
MIC Enterococcus faecium (GC 4556) [3]: >64 µg/mL
MIC Enterococcus faecium (GC 4557) [3]: 8 µg/mL (≈ 5.47 µM)
MIC Enterococcus avium (GC 4558) [3]: 64 µg/mL (≈ 43.8 µM)
MIC Enterococcus faecalis (GC 6189) [3]: >64 µg/mL
MIC Streptococcus agalactiae (GC 4564) ([4]; Streptococcus agalactiae (GC 4564)): 16 µg/mL (≈ 10.9 µM)
MIC Streptococcus pneumoniae (ATCC 6301) ([4]; Streptococcus pneumoniae (ATCC 6301)): 4 µg/mL (≈ 2.74 µM)
MIC Streptococcus pneumoniae (GC 1894) ([4]; Streptococcus pneumoniae (GC 1894)): 4 µg/mL (≈ 2.74 µM)
MIC Streptococcus pneumoniae (GC 4565) ([4]; Streptococcus pneumoniae (GC 4565)): 4 µg/mL (≈ 2.74 µM)
MIC Streptococcus pyogenes (GC 4563) ([4]; Streptococcus pyogenes (GC 4563)): 8 µg/mL (≈ 5.47 µM)
MIC Streptococcus pneumoniae (ATCC 6301) ([4]; strain ATCC 6301): 4 µg/mL (≈ 2.74 µM)
MIC Streptococcus pneumoniae (GC 1894) ([4]; strain GC 1894): 4 µg/mL (≈ 2.74 µM)
MIC Streptococcus pyogenes (GC 4563) ([4]; strain GC 4563): 8 µg/mL (≈ 5.47 µM)
MIC Streptococcus agalactiae (GC 4564) ([4]; strain GC 4564): 16 µg/mL (≈ 10.9 µM)
MIC Streptococcus pneumoniae (GC 4565) ([4]; strain GC 4565): 4 µg/mL (≈ 2.74 µM)
Compound: CC(c1ccccc1)C1NC(=O)CNC(=O)C(CO)NC(=O)C(C(O)C2CNC(=N)N2C2OC(CO)C(O)C(O)C2O)NC(=O)C(C(O)C2CNC(=N)N2)NC(=O)C(Cc2ccc(OC3OC(CO)C(OC4OC5COC(c6ccc(S(C)(=O)=O)cc6)OC5C(O)C4O)C(O)C3O)cc2)NC1=O (centres unmarked) [Example 157]
MIC Staphylococcus haemolyticus (GC 4546) ([2]; strain GC 4546): 16 µg/mL (≈ 10.9 µM)
